Measured values taken from patent publication US20260191968A1, “PROTAC DEGRADERS OF MLLT1 AND/OR MLLT3” (DARK BLUE THERAPEUTICS LTD, priority 2024, published 2026).

Biological target: T1, MLLT1 (Homo sapiens, UniProt Q03111)
T1 construct: host or cells: MV4-11
T1 sequence (Q03111 1-559): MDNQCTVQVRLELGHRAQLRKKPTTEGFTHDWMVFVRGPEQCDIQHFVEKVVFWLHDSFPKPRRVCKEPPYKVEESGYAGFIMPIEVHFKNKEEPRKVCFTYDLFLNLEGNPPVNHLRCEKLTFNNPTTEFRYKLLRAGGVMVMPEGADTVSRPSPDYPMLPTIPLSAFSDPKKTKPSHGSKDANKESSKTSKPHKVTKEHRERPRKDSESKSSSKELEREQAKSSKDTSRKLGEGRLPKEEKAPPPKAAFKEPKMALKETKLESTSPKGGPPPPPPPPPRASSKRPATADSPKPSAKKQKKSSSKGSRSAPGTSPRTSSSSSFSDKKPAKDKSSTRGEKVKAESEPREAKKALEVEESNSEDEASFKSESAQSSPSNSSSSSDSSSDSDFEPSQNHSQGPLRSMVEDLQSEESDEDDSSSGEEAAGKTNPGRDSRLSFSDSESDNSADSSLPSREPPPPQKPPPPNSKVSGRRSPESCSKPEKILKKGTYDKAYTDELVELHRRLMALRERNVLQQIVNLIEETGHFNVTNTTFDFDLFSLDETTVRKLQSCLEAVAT
Test: MLLT1 degradation assay in MV4-11 cells (JESS chemiluminescent detection), three concentrations, 24 h
Type: cell-based
Details: with respect to DMSO control
In short: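 MV4-11 cells treated 24 h at 37° C, 5% CO2 with 1000, 100 and 10 nM compound (0.1% DMSO final). MLLT1 quantified by automated capillary chemiluminescent immunodetection; band peak area expressed as % degradation relative to DMSO control.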

With `CN1CCC[C@@H]1c1cc2cnc(NC(=O)c3ccc(OC4CCN(CC5CCN(c6cc7c(cc6F)C(=O)N(C6CCC(=O)NC6=O)C7=O)CC5)CC4)cc3)cc2[nH]1` (stereo partly drawn) [Example 184, 4-((1-((1-(2-(2,6-dioxopiperidin-3-yl)-6-fluoro-1,3-dioxoisoindolin-5-yl)piperidin-4-yl)methyl)piperidin-4-yl)oxy)-N-(2-((R)-1-methylpyrrolidin-2-yl)-1H-pyrrolo[3,2-c]pyridin-6-yl)benzamide] the “MLLT1% Degradation @ 0.01 μM” value was “B (Category B: 50% ≤ B < 75% degradation)”, the “MLLT1% Degradation @ 0.1 μM” value was “A (Category A: A ≥ 75% degradation)” and the “MLLT1% Degradation @ 1 μM” value was “A (Category A: A ≥ 75% degradation)”.

With `CN1CCC[C@@H]1c1cc2cnc(NC(=O)c3ccc(N4CCC(c5ccc(-c6cccc7c6C(=O)N(C6CCC(=O)NC6=O)C7=O)cc5)CC4)nc3)cc2[nH]1` (stereo partly drawn) [Example 178, 6-(4-(4-(2-(2,6-dioxopiperidin-3-yl)-1,3-dioxoisoindolin-4-yl)phenyl)piperidin-1-yl)-N-(2-((R)-1-methylpyrrolidin-2-yl)-1H-pyrrolo[3,2-c]pyridin-6-yl)nicotinamide] the “MLLT1% Degradation @ 0.01 μM” value was “C (Category C: 25% ≤ C < 50% degradation)”, the “MLLT1% Degradation @ 0.1 μM” value was “B (Category B: 50% ≤ B < 75% degradation)” and the “MLLT1% Degradation @ 1 μM” value was “B (Category B: 50% ≤ B < 75% degradation)”.

In the case of `CN1CCC[C@@H]1c1cc2cnc(NC(=O)c3cccc(OCCCCCCCC#Cc4cccc5c4C(=O)N(C4CCC(=O)NC4=O)C5=O)c3)cc2[nH]1` (stereo partly drawn) [Example 26, 3-((9-(2-(2,6-dioxopiperidin-3-yl)-1,3-dioxoisoindolin-4-yl)non-8-yn-1-yl)oxy)-N-(2-((R)-1-methylpyrrolidin-2-yl)-1H-pyrrolo[3,2-c]pyridin-6-yl)benzamide], the “MLLT1% Degradation @ 0.01 μM” value is reported as “D (Category D: D < 25% degradation)”, the “MLLT1% Degradation @ 0.1 μM” value is reported as “D (Category D: D < 25% degradation)” and the “MLLT1% Degradation @ 1 μM” value is reported as “C (Category C: 25% ≤ C < 50% degradation)”.

In the case of `CN1CCC[C@@H]1c1cc2cnc(NC(=O)c3ccc(N4CCN(CC5CCN(c6cccc(C(=O)N[C@H]7CCC(=O)NC7=O)n6)CC5)CC4)cc3)cc2[nH]1` [Example 182, N—((S)-2,6-dioxopiperidin-3-yl)-6-(4-((4-(4-((2-((R)-1-methylpyrrolidin-2-yl)-1H-pyrrolo[3,2-c]pyridin-6-yl)carbamoyl)phenyl)piperazin-1-yl)methyl)piperidin-1-yl)picolinamide], the “MLLT1% Degradation @ 0.01 μM” value is reported as “C (Category C: 25% ≤ C < 50% degradation)”, the “MLLT1% Degradation @ 0.1 μM” value is reported as “B (Category B: 50% ≤ B < 75% degradation)” and the “MLLT1% Degradation @ 1 μM” value is reported as “B (Category B: 50% ≤ B < 75% degradation)”.

In the case of `C[C@H]1CN(CC2CCN(c3cccc4c3CN(C3CCC(=O)NC3=O)C4=O)CC2)CCN1c1ccc(C(=O)Nc2cc3[nH]c([C@H]4CCCN4C)cc3cn2)cn1` (stereo partly drawn) [Example 127, 6-((2S)-4-((1-(2-(2,6-dioxopiperidin-3-yl)-1-oxoisoindolin-4-yl)piperidin-4-yl)methyl)-2-methylpiperazin-1-yl)-N-(2-((R)-1-methylpyrrolidin-2-yl)-1H-pyrrolo[3,2-c]pyridin-6-yl)nicotinamide], the “MLLT1% Degradation @ 0.01 μM” value is reported as “B (Category B: 50% ≤ B < 75% degradation)”, the “MLLT1% Degradation @ 0.1 μM” value is reported as “B (Category B: 50% ≤ B < 75% degradation)” and the “MLLT1% Degradation @ 1 μM” value is reported as “B (Category B: 50% ≤ B < 75% degradation)”.

In the case of `CN1CCC[C@@H]1c1cc2cnc(NC(=O)c3ccc(N4CCN(C(=O)CCC5CCN(c6cccc7c6CN(C6CCC(=O)NC6=O)C7=O)CC5)CC4)cc3)cc2[nH]1` (stereo partly drawn) [Example 189, 4-(4-(3-(1-(2-(2,6-dioxopiperidin-3-yl)-1-oxoisoindolin-4-yl)piperidin-4-yl)propanoyl)piperazin-1-yl)-N-(2-((R)-1-methylpyrrolidin-2-yl)-1H-pyrrolo[3,2-c]pyridin-6-yl)benzamide], the “MLLT1% Degradation @ 0.01 μM” value is reported as “B (Category B: 50% ≤ B < 75% degradation)”, the “MLLT1% Degradation @ 0.1 μM” value is reported as “B (Category B: 50% ≤ B < 75% degradation)” and the “MLLT1% Degradation @ 1 μM” value is reported as “C (Category C: 25% ≤ C < 50% degradation)”.

With `CN1CCC[C@@H]1c1cc2cnc(NC(=O)c3ccc(CCCC4CCN(c5cccc6c5C(=O)N(C5CCC(=O)NC5=O)C6=O)CC4)cc3)cc2[nH]1` (stereo partly drawn) [Example 128, 4-(3-(1-(2-(2,6-dioxopiperidin-3-yl)-1,3-dioxoisoindolin-4-yl)piperidin-4-yl)propyl)-N-(2-((R)-1-methylpyrrolidin-2-yl)-1H-pyrrolo[3,2-c]pyridin-6-yl)benzamide] the “MLLT1% Degradation @ 0.01 μM” value was “C (Category C: 25% ≤ C < 50% degradation)”, the “MLLT1% Degradation @ 0.1 μM” value was “A (Category A: A ≥ 75% degradation)” and the “MLLT1% Degradation @ 1 μM” value was “A (Category A: A ≥ 75% degradation)”.

`CN1CCC[C@@H]1c1cc2cnc(NC(=O)c3cnn(CCCC4CCN(c5cccc6c5C(=O)N(C5CCC(=O)NC5=O)C6=O)CC4)c3)cc2[nH]1` (stereo partly drawn) [Example 38, 1-(3-{1-[2-(2,6-dioxopiperidin-3-yl)-1,3-dioxoisoindol-4-yl]piperidin-4-yl}propyl)-N-{2-[(2R)-1-methylpyrrolidin-2-yl]-1H-pyrrolo[3,2-c]pyridin-6-yl}pyrazole-4-carboxamide] was tested, and the “MLLT1% Degradation @ 0.01 μM” value was “D (Category D: D < 25% degradation)”, the “MLLT1% Degradation @ 0.1 μM” value was “D (Category D: D < 25% degradation)” and the “MLLT1% Degradation @ 1 μM” value was “C (Category C: 25% ≤ C < 50% degradation)”.

For `CN1CCC[C@@H]1c1cc2cnc(NC(=O)c3ccc(CCCCC#Cc4cccc5c4CN(C4CCC(=O)NC4=O)C5=O)nc3)cc2[nH]1` (stereo partly drawn) [Example 10, 6-(6-(2-(2,6-dioxopiperidin-3-yl)-1-oxoisoindolin-4-yl)hex-5-yn-1-yl)-N-(2-((R)-1-methylpyrrolidin-2-yl)-1H-pyrrolo[3,2-c]pyridin-6-yl) nicotinamide], the “MLLT1% Degradation @ 0.01 μM” value was “A (Category A: A ≥ 75% degradation)”, the “MLLT1% Degradation @ 0.1 μM” value was “A (Category A: A ≥ 75% degradation)” and the “MLLT1% Degradation @ 1 μM” value was “B (Category B: 50% ≤ B < 75% degradation)”.

`Cc1cc(OC2CCN(c3ccc(C(=O)Nc4cc5[nH]c([C@H]6CCCN6C)cc5cn4)cn3)CC2)ccc1-c1cccc2c1CN(C1CCC(=O)NC1=O)C2=O` (stereo partly drawn) [Example 196, 6-(4-(4-(2-(2,6-dioxopiperidin-3-yl)-1-oxoisoindolin-4-yl)-3-methylphenoxy)piperidin-1-yl)-N-(2-((R)-1-methylpyrrolidin-2-yl)-1H-pyrrolo[3,2-c]pyridin-6-yl)nicotinamide] was tested, and the “MLLT1% Degradation @ 0.01 μM” value was “D (Category D: D < 25% degradation)”, the “MLLT1% Degradation @ 0.1 μM” value was “B (Category B: 50% ≤ B < 75% degradation)” and the “MLLT1% Degradation @ 1 μM” value was “A (Category A: A ≥ 75% degradation)”.

`CN1CCC[C@@H]1c1[nH]c2cc(NC(=O)c3ccc(CCCC4CCN(c5cccc6c5CN([C@H]5CCC(=O)NC5=O)C6=O)CC4)cc3)ncc2c1Cl` [Example 233, N-(3-chloro-2-((R)-1-methylpyrrolidin-2-yl)-1H-pyrrolo[3,2-c]pyridin-6-yl)-4-(3-(1-(2-((S)-2,6-dioxopiperidin-3-yl)-1-oxoisoindolin-4-yl)piperidin-4-yl)propyl)benzamide] was tested, and the “MLLT1% Degradation @ 0.01 μM” value was “A (Category A: A ≥ 75% degradation)”, the “MLLT1% Degradation @ 0.1 μM” value was “A (Category A: A ≥ 75% degradation)” and the “MLLT1% Degradation @ 1 μM” value was “A (Category A: A ≥ 75% degradation)”.

With `CN1CCC[C@@H]1c1cc2cnc(NC(=O)c3cccc(N4CCN(CC5CCN(c6ccc7c(c6)CN(C6CCC(=O)NC6=O)C7=O)CC5)CC4)c3)cc2[nH]1` (stereo partly drawn) [Example 192, 3-(4-((1-(2-(2,6-dioxopiperidin-3-yl)-1-oxoisoindolin-5-yl)piperidin-4-yl)methyl)piperazin-1-yl)-N-(2-((R)-1-methylpyrrolidin-2-yl)-1H-pyrrolo[3,2-c]pyridin-6-yl)benzamide] the “MLLT1% Degradation @ 0.01 μM” value was “B (Category B: 50% ≤ B < 75% degradation)”, the “MLLT1% Degradation @ 0.1 μM” value was “B (Category B: 50% ≤ B < 75% degradation)” and the “MLLT1% Degradation @ 1 μM” value was “C (Category C: 25% ≤ C < 50% degradation)”.

With `Cc1cc(OCCC2CCN(c3cccc4c3CN(C3CCC(=O)NC3=O)C4=O)CC2)ccc1C(=O)Nc1cc2[nH]c([C@H]3CCCN3C)cc2cn1` (stereo partly drawn) [Example 204, 4-(2-(1-(2-(2,6-dioxopiperidin-3-yl)-1-oxoisoindolin-4-yl)piperidin-4-yl)ethoxy)-2-methyl-N-(2-((R)-1-methylpyrrolidin-2-yl)-1H-pyrrolo[3,2-c]pyridin-6-yl)benzamide] the “MLLT1% Degradation @ 0.01 μM” value was “C (Category C: 25% ≤ C < 50% degradation)”, the “MLLT1% Degradation @ 0.1 μM” value was “B (Category B: 50% ≤ B < 75% degradation)” and the “MLLT1% Degradation @ 1 μM” value was “B (Category B: 50% ≤ B < 75% degradation)”.
